Experiment [1] has as its target T1, STAT3 (Homo sapiens, UniProt P40763).
T1 construct: Recombinant STAT3 protein (STAT3(G127-1722))
Kind of experiment: STAT3 Fluorescence Polarization (FP) Assay. It is filed as binding. How it is done:
STAT3 Fluorescence Polarization (FP) Assay
An FP assay was developed to determine IC50 values for test substances. Recombinant STAT3 protein (STAT3(G127-1722)) at 25 nM was combined with a fluorescently labeled, phosphotyrosine peptide probe (5-FAM-GpYLPQTV-NH2) at 2 nM in FP buffer (10 mM HEPES pH 7.4, 50 mM NaCl, 1 mM EDTA, 0.05% Tween 20.2 mM DTT). 50 μL of STAT3-probe mixture was added to serial diluted compounds in black, 96-well plates (Greiner BioOne 655076) to a final concentration of 1% DMSO. Reaction components were mixed, and FP was measured after 45-minute incubation at room temperature using a Tecan Spark multimode plate reader. FP signal (mP) was plotted against the log concentration of the test substances and IC50 values were calculated by nonlinear regression analysis using GraphPad Prism software. For STAT3 FP assay. A=≤100 nM; B=>100-1000 nM; C=>1-10 μM; and D=>10 μM.
(Fluorescence polarisation rises when a labelled molecule tumbles more slowly, as on binding a larger partner.)

The target of experiment [2] is T2, STAT6 (Homo sapiens, UniProt P42226).
T2 construct: Recombinant STAT6 protein (STAT6(W123-T658))
T2 sequence (P42226 123-658): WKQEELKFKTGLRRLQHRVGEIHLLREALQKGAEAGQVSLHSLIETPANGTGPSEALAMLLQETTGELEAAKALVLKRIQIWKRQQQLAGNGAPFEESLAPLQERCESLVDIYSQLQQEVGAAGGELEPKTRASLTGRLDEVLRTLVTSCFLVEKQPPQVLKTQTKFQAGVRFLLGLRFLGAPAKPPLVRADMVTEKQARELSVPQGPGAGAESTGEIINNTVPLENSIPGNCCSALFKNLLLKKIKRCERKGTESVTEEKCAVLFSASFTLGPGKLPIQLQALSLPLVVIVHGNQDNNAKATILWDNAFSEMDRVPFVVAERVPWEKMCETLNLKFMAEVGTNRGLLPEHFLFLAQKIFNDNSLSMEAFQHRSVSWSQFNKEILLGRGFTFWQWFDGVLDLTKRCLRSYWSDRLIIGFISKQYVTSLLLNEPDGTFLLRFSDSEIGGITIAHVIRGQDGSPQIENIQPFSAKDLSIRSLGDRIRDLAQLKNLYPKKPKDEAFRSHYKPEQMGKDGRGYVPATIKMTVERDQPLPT
The experiment can be described thus: STAT6 Fluorescence Polarization (FP) Assay. The format is binding. How it is done: STAT6 Fluorescence Polarization (FP) Assay
An FP assay was developed to determine IC50 values for test substances. Recombinant STAT6 protein (STAT6(W123-T658)) at 250 nM was combined with a fluorescently labeled, phosphotyrosine peptide probe (5-FAM-Ap[…]-NH2) at 2 nM in FP buffer (10 mM HEPES pH 7.4, 50 mM NaCl, 1 mM EDTA, 0.05% Tween 20, 2 mM DTT), 50 μL of STAT6-probe mixture was added to serial diluted compounds in black, 96-well plates (Greiner BioOne 655076) to a final concentration of 1% DMSO. Reaction components were mixed, and FP was measured after 45-minute incubation at room temperature using a Tecan Spark multimode plate reader. FP signal (mP) was plotted against the log concentration of the test substances and IC50 values were calculated by nonlinear regression analysis using GraphPad Prism software. For STAT6 FP assay. A=≤300 nM; B=>300-3000 nM; C=>3-30 μM; and D=>30 μM.

Experiment [3] addresses T3, pSTAT6 (Homo sapiens, UniProt P42226).
T3 construct: pY641-STAT6 MSD read-out
T3 sequence (P42226 1-847): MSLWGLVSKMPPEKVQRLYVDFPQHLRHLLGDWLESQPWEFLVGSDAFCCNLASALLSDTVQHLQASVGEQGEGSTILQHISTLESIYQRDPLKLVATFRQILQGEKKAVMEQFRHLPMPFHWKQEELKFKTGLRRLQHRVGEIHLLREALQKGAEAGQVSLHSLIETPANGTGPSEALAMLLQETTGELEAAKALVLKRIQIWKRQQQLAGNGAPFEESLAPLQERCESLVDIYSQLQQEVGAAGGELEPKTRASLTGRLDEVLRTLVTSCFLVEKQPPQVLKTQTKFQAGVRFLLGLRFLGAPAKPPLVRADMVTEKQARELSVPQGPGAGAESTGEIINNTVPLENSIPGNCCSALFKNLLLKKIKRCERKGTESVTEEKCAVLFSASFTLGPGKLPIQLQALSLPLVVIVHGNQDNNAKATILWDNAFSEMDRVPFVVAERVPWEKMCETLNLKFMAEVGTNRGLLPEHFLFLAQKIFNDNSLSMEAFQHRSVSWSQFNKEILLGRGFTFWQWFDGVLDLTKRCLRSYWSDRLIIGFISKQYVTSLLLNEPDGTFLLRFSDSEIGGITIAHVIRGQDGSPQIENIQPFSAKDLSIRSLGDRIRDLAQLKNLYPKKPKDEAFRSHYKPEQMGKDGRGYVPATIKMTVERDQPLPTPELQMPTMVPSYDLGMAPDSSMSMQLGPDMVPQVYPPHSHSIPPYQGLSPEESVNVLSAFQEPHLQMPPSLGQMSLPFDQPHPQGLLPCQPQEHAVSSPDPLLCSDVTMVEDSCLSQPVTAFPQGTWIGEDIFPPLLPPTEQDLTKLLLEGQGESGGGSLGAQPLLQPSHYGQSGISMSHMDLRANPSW
The experiment can be described thus: MSD-pSTAT-PBMC Assay, pSTAT6 (IL-4 stimulated PBMC). The format is cell-based. From the text: Cryopreserved Peripheral Blood Mononuclear Cells (PBMC) are from AllCells. Recombinant Human IL-4 and IL-6 are from Peprotech. Mouse monoclonal anti-STAT3 antibody, rabbit monoclonal anti-pY705-STAT3 antibody, rabbit monoclonal Anti-pY641-STAT6 antibody, and lysis buffer are from Cell Signaling Technology (CST). Mouse monoclonal anti-STAT6 antibody is from BioLegend. Assay plates, blocker, and anti-rabbit secondary antibody are from Meso Scale Discovery (MSD).
Cryopreserved PBMCs were thawed out and allowed to recover overnight in IMDM+10% heat-inactivated FBS prior to plating 50,000 (STAT3) or 25,000 (STAT6) cells per well in 96-well U-bottom tissue culture plates. Cells were treated with compound for 3 hrs. then stimulated with 10 ng/mL IL-6 (STAT3) or 1 ng/mL IL-4 (STAT6) for 10 min. Cells were then spun down and washed with ice-cold PBS prior to lysing the cell pellet with 1× lysis buffer (CST) with 1×HALT protease and phosphatase inhibitor cocktail (Thermo). Lysates were transferred to and incubated overnight at 4° C. with shaking in QuickPlex 96-well high bind assay plates (MSD) pre-coated overnight with 30 μL per well of 0.6 μg/mL mouse monoclonal anti-STAT3 antibody (STAT3) or 2 μg/mL mouse monoclonal anti-STAT6 antibody (STAT6) in 1×PBS, and pre-blocked for 1 hour with 3% Blocker-A (MSD). Captured protein in the assay plates were then washed and probed with 25 μL per well of 0.25 μg/ml rabbit monoclonal anti-pY705-STAT3 antibody (STAT3) or 0.18 μg/ml rabbit monoclonal Anti-pY641-STAT6 antibody (STAT6) in 1% Blocker-A for 1 hour at room temperature with shaking, then washed and probed with 25 ul per well of 1 ug/ml Sulfo-TAG Labeled Goat Anti-Rabbit Antibody (MSD) in 1% Blocker-A for 1 hour at room temperature with shaking. Assay plates were then washed and 150 μL of 1× Read Buffer-T (MSD) was added to each well prior to reading on an SQ120 MSD Plate Reader. Assay signal from each sample was subtracted by the signal from unstimulated control wells and normalized to DMSO control wells. IC50 values were calculated using Graph Pad Prism Dose-Response Nonlinear Regression with variable slope. For both pSTAT3 and pSTAT6 A=≤100 nM; B=>100-1000 nM; C=>1000-3000 nM; and D=>3 μM.

[4] abbreviates: recombinant STAT3 25 nM, probe 5-FAM-GpYLPQTV-NH2 2 nM, 45 min, room temperature, read-out: STAT3 FP IC50.
[5] abbreviates: recombinant STAT6(W123-T658) 250 nM, probe 5-FAM-Ap[…]-NH2 2 nM, 45 min, room temperature, read-out: STAT6 FP IC50.
Setting [6] is: compound 3 hrs, then 1 ng/mL IL-4 for 10 min, pY641-STAT6, read-out: pSTAT6 IC50.

IC50 data for six molecules are collected here from US20260308186A1, “STAT DEGRADERS AND USES THEREOF” (Recludix Pharma, Inc., priority 2023, published 2026).

Read-outs that look alike come from different tables or passages of the source.

T1 sequence (P40763 127-722 limits assumed): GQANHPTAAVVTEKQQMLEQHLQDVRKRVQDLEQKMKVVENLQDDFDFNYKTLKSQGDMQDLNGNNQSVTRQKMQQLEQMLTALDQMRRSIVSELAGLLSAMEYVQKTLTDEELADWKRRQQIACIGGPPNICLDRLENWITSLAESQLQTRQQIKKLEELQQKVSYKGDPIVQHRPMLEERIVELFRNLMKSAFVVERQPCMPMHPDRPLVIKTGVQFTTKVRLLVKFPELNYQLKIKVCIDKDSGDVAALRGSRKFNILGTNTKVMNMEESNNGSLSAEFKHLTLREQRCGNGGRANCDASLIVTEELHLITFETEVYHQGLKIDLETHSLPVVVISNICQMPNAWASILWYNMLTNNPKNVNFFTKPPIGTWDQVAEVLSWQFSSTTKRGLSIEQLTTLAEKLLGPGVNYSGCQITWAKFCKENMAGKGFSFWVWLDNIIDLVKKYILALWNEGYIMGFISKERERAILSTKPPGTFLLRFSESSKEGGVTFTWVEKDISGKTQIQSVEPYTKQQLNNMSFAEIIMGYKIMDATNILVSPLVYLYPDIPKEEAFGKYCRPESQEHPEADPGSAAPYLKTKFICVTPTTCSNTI

For `Cc1ccc2onc(C(=O)N3CC[C@H]4CC[C@@H](C(=O)N(C)CCC#Cc5cccc6c5CN(C5CCC(=O)NC5=O)C6=O)N4C(=O)[C@@H](NC(=O)c4ccc5ccc(C(F)(F)P(=O)(O)O)cc5c4)C3)c2c1` (stereo partly drawn) [Compound 28, ((7-(((5S,8S,10aR)-8-((4-(2-(2,6-dioxopiperidin-3-yl)-1-oxoisoindolin-4-yl)but-3-yn-1-yl)(methyl)carbamoyl)-3-(5-methylbenzo[d]isoxazole-3-carbonyl)-6-oxodecahydropyrrolo[1,2-a][1,5]diazocin-5-yl)carbamoyl)naphthalen-2-yl)difluoromethyl)phosphonic acid], the results for the IC50 in experiment [1] (setting [4]), in experiment [2] (setting [5]) and in experiment [3] (setting [6]) were 1000 to 10000 nM, < 300 nM and > 3000 nM, respectively.
Consider `Cc1ccc2[nH]nc(C(=O)N3CC[C@H]4CC[C@@H](C(=O)N(C)CCCCCCC#Cc5cccc6c5CN(C5CCC(=O)NC5=O)C6=O)N4C(=O)[C@@H](NC(=O)c4ccc5ccc(C(F)(F)P(=O)(O)O)cc5c4)C3)c2c1` (stereo partly drawn) [Compound 11, ((7-(((5S,8S,10aR)-8-((8-(2-(2,6-dioxopiperidin-3-yl)-1-oxoisoindolin-4-yl)oct-7-yn-1-yl)(methyl)carbamoyl)-3-(5-methyl-1H-indazole-3-carbonyl)-6-oxodecahydropyrrolo[1,2-a][1,5]diazocin-5-yl)carbamoyl)naphthalen-2-yl)difluoromethyl)phosphonic acid], for which the IC50 was 1000 to 10000 nM in experiment [1]; < 300 nM in experiment [2]; 100 to 1000 nM in experiment [3] (read-out: pSTAT6 IC50, compound 3 hrs, then 1 ng/mL IL-4 for 10 min, pY641-STAT6).
As to `Cc1ccc2onc(C(=O)N3CC[C@H]4CC[C@@H](C(=O)Nc5cccc6c5CN(C5CCC(=O)NC5=O)C6=O)N4C(=O)[C@@H](NC(=O)c4ccc5ccc(C(F)(F)P(=O)(O)O)cc5c4)C3)c2c1` (stereo partly drawn) [Compound 35, ((7-(((5S,8S,10aR)-8-((2-(2,6-dioxopiperidin-3-yl)-1-oxoisoindolin-4-yl)carbamoyl)-3-(5-methylbenzo[d]isoxazole-3-carbonyl)-6-oxodecahydropyrrolo[1,2-a][1,5]diazocin-5-yl)carbamoyl)naphthalen-2-yl)difluoromethyl)phosphonic acid], the results for the IC50 in experiment [1] (setting [4]), in experiment [2] (setting [5]) and in experiment [3] (setting [6]) were > 10000 nM, < 300 nM and > 3000 nM, respectively.
With `Cc1ccc2onc(C(=O)N3CC[C@H]4CC[C@@H](C(=O)N(C)CCCCOc5ccc(C6CCC(=O)NC6=O)cc5)N4C(=O)[C@@H](NC(=O)c4ccc5ccc(C(F)(F)P(=O)(O)O)cc5c4)C3)c2c1` (stereo partly drawn) [Compound 30, ((7-(((5S,8S,10aR)-8-((4-(4-(2,6-dioxopiperidin-3-yl)phenoxy)butyl)(methyl)carbamoyl)-3-(5-methylbenzo[d]isoxazole-3-carbonyl)-6-oxodecahydropyrrolo[1,2-a][1,5]diazocin-5-yl)carbamoyl)naphthalen-2-yl)difluoromethyl)phosphonic acid], the IC50 in experiment [1] (setting [4]) was 1000 to 10000 nM; in experiment [2] (setting [5]) it was < 300 nM; in experiment [3] (setting [6]), > 3000 nM.
Take `Cc1ccc2onc(C(=O)N3CC[C@H]4CC[C@@H](C(=O)N(C)CCCCCCC#Cc5cccc6c5CN(C5CCC(=O)NC5=O)C6=O)N4C(=O)[C@@H](NC(=O)c4ccc5ccc(C(F)(F)P(=O)(O)O)cc5c4)C3)c2c1` (stereo partly drawn) [Compound 22, ((7-(((5S,8S,10aR)-8-((8-(2-(2,6-dioxopiperidin-3-yl)-1-oxoisoindolin-4-yl)oct-7-yn-1-yl)(methyl)carbamoyl)-3-(5-methylbenzo[d]isoxazole-3-carbonyl)-6-oxodecahydropyrrolo[1,2-a][1,5]diazocin-5-yl)carbamoyl)naphthalen-2-yl)difluoromethyl)phosphonic acid]: the IC50 was > 10000 nM in experiment [1] (setting [4]), < 300 nM in experiment [2] (setting [5]) and 100 to 1000 nM in experiment [3] (setting [6]).
As to `Cc1ccc2onc(C(=O)N3CC[C@H]4CC[C@@H](C(=O)N5CCN(c6ccc7[nH]c(=O)n(C8CCC(=O)NC8=O)c7c6)CC5)N4C(=O)[C@@H](NC(=O)c4ccc5ccc(C(F)(F)P(=O)(O)O)cc5c4)C3)c2c1` (stereo partly drawn) [Compound 37, ((7-(((5S,8S,10aR)-8-(4-(3-(2,6-dioxopiperidin-3-yl)-2-oxo-2,3-dihydro-1H-benzo[d]imidazol-5-yl)piperazine-1-carbonyl)-3-(5-methylbenzo[d]isoxazole-3-carbonyl)-6-oxodecahydropyrrolo[1,2-a][1,5]diazocin-5-yl)carbamoyl)naphthalen-2-yl)difluoromethyl)phosphonic acid], the IC50 in experiment [1] (setting [4]) was > 10000 nM; in experiment [2] (setting [5]), < 300 nM; in experiment [3] (setting [6]), > 3000 nM.
